# Laboratory results as given in PubChem BioAssay AID330 (DTP/NCI, 2004).
# “And” between values parts separate entries of the source, which are not always exact repeats. Identical values can stand only once. Inconclusive results and toxic doses are left out.
# Test system: P388 leukemia ip, CD2F1 mice, survival T/C
# Test: NCI In Vivo Anticancer Drug Screen. Data for tumor model P388 Leukemia (intraperitoneal) in CD2F1 (CDF1) mice
# Settings: endpoint: median survival time, higher = longer survival
# How it was run: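 Mice carrying the transplanted tumor received test compound or vehicle. Survival was recorded in each group, and the value is the treated-group measurement divided by that of the vehicle-treated control group.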
# [1] = dose: 25.0 mg/kg/injection, schedule: Q01DX005 (ip), vehicle: saline with Tween-80
# [2] = dose: 50.0 mg/kg/injection, schedule: Q01DX005 (ip), vehicle: saline with Tween-80
# [3] = dose: 50.0 mg/kg/injection, schedule: Q01DX009 (ip), vehicle: saline
# [4] = dose: 100.0 mg/kg/injection, schedule: Q01DX005 (ip), vehicle: saline
# [5] = dose: 100.0 mg/kg/injection, schedule: Q01DX009 (ip), vehicle: saline
# [6] = dose: 200.0 mg/kg/injection, schedule: Q01DX005 (ip), vehicle: saline
# [7] = dose: 200.0 mg/kg/injection, schedule: Q01DX009 (ip), vehicle: saline
# [8] = dose: 12.5 mg/kg/injection, schedule: Q01DX009 (ip), vehicle: saline with Tween-80
# [9] = dose: 25.0 mg/kg/injection, schedule: Q01DX009 (ip), vehicle: saline with Tween-80
# [10] = dose: 50.0 mg/kg/injection, schedule: Q01DX009 (ip), vehicle: Klucel (hydroxypropylcellulose) (HPC)
# [11] = dose: 100.0 mg/kg/injection, schedule: Q01DX009 (ip), vehicle: Klucel (hydroxypropylcellulose) (HPC)
# [12] = dose: 200.0 mg/kg/injection, schedule: Q01DX009 (ip), vehicle: Klucel (hydroxypropylcellulose) (HPC)
structure (smiles),measurement,setting,value
C=C(Cl)C(=NC(C)(C)C)Nc1cccc(Cl)c1,T/C,"dose: 6.25 mg/kg/injection, schedule: Q01DX005 (ip), vehicle: Klucel (hydroxypropylcellulose) (HPC)",112 % of control
same,T/C,"dose: 12.5 mg/kg/injection, schedule: Q01DX005 (ip), vehicle: Klucel (hydroxypropylcellulose) (HPC)",114 % of control
same,T/C,"dose: 25.0 mg/kg/injection, schedule: Q01DX005 (ip), vehicle: Klucel (hydroxypropylcellulose) (HPC)",112 % of control
same,T/C,"dose: 50.0 mg/kg/injection, schedule: Q01DX005 (ip), vehicle: Klucel (hydroxypropylcellulose) (HPC)",105 % of control
same,T/C,"dose: 100.0 mg/kg/injection, schedule: Q01DX005 (ip), vehicle: Klucel (hydroxypropylcellulose) (HPC)",115 % of control
same,T/C,"dose: 200.0 mg/kg/injection, schedule: Q01DX005 (ip), vehicle: Klucel (hydroxypropylcellulose) (HPC)",118 % of control
O=C1Cn2c(cc(=O)c3ccccc32)O1,T/C,"dose: 25.0 mg/kg/injection, schedule: Q01DX001 (ip), vehicle: saline with Tween-80",109 % of control
same,T/C,"dose: 50.0 mg/kg/injection, schedule: Q01DX001 (ip), vehicle: saline with Tween-80",116 % of control
same,T/C,"dose: 100.0 mg/kg/injection, schedule: Q01DX001 (ip), vehicle: saline with Tween-80",116 % of control
CC1=C(/C=C/C(C)=C/C=C/C(C)=C/C(=O)Nc2ccc(O)cc2)C(C)(C)CCC1,T/C,[1],97 % of control
same,T/C,[2],90 % of control
ClCC[N+]12CC[N+](CCCl)(CC1)C2 (tested in a mixture with another compound),T/C,"dose: 12.5 mg/kg/injection, schedule: Q01DX009 (ip), vehicle: water",105 % of control and 118 % of control
same,T/C,"dose: 25.0 mg/kg/injection, schedule: Q01DX005 (ip), vehicle: saline",116 % of control
same,T/C,"dose: 25.0 mg/kg/injection, schedule: Q01DX009 (ip), vehicle: water",119 % of control
same,T/C,[3],159 % of control and 171 % of control
same,T/C,"dose: 50.0 mg/kg/injection, schedule: Q01DX009 (ip), vehicle: water",150 % of control
same,T/C,[4],162 % of control and 168 % of control
same,T/C,[5],197 % of control and 198 % of control
same,T/C,"dose: 100.0 mg/kg/injection, schedule: Q01DX009 (ip), vehicle: water",160 % of control and 196 % of control
same,T/C,[6],161 % of control and 212 % of control
same,T/C,[7],240 % of control and 263 % of control
same,T/C,"dose: 200.0 mg/kg/injection, schedule: Q01DX009 (ip), vehicle: water",188 % of control
same,T/C,"dose: 400.0 mg/kg/injection, schedule: Q01DX009 (ip), vehicle: saline",281 % of control and 296 % of control
Cc1c(O)c2c(c(O)c1Cc1cccc(C#N)c1)C(=O)c1ccccc1C2=O,T/C,"dose: 25.0 mg/kg/injection, schedule: Q01DX009 (ip), vehicle: other",89 % of control
CCCCN(CCCC)CC(O)c1cc(-c2ccc(C(F)(F)F)cc2)nc(-c2ccc(C(F)(F)F)cc2)c1 (configuration not stated),T/C,"dose: 6.25 mg/kg/injection, schedule: Q01DX009 (ip), vehicle: saline with Tween-80",109 % of control
same,T/C,[8],109 % of control
same,T/C,[9],100 % of control
CC(SC(=O)c1ccccc1)(SC(=O)c1ccccc1)c1ccccc1,T/C,[10],94 % of control
same,T/C,[11],95 % of control
same,T/C,[12],93 % of control
CC(C)C[CH2][Pb]([Cl])([CH2]CC(C)C)[CH2]CC(C)C,T/C,"dose: 0.06 mg/kg/injection, schedule: Q01DX009 (ip), vehicle: saline + alcohol",103 % of control
same,T/C,"dose: 0.13 mg/kg/injection, schedule: Q01DX009 (ip), vehicle: saline + alcohol",108 % of control
same,T/C,"dose: 0.25 mg/kg/injection, schedule: Q01DX009 (ip), vehicle: saline + alcohol",105 % of control
same,T/C,"dose: 0.5 mg/kg/injection, schedule: Q01DX009 (ip), vehicle: saline + alcohol",119 % of control
same,T/C,"dose: 1.0 mg/kg/injection, schedule: Q01DX009 (ip), vehicle: saline + alcohol",118 % of control
same,T/C,"dose: 2.0 mg/kg/injection, schedule: Q01DX009 (ip), vehicle: saline",111 % of control
same,T/C,"dose: 4.0 mg/kg/injection, schedule: Q01DX009 (ip), vehicle: saline",110 % of control
same,T/C,"dose: 8.0 mg/kg/injection, schedule: Q01DX009 (ip), vehicle: saline",100 % of control
CC1(C)COSOC1,T/C,"dose: 100.0 mg/kg/injection, schedule: Q01DX001 (ip), vehicle: Klucel (hydroxypropylcellulose) (HPC)",98 % of control
same,T/C,"dose: 200.0 mg/kg/injection, schedule: Q01DX001 (ip), vehicle: Klucel (hydroxypropylcellulose) (HPC)",104 % of control
same,T/C,"dose: 400.0 mg/kg/injection, schedule: Q01DX001 (ip), vehicle: Klucel (hydroxypropylcellulose) (HPC)",104 % of control
CSc1nc(=O)[nH]nc1SCc1ccccc1,T/C,[10],114 % of control and 120 % of control
same,T/C,[11],101 % of control and 111 % of control
same,T/C,[12],108 % of control and 120 % of control
O=S(=O)(c1ccc(NC(=S)NCc2cccnc2)cc1)N1CCCCC1,T/C,[10],92 % of control
same,T/C,[11],93 % of control
same,T/C,[12],95 % of control
O=C1NC(=O)N(CCO)C(=O)C1c1ccccc1 (configuration not stated),T/C,[10],101 % of control
same,T/C,[11],101 % of control
same,T/C,[12],94 % of control
CCOC(=O)/C(Nc1ccc(C(=O)OCC)cc1)=C1\COc2nc(N)[nH]c(=O)c2N1,T/C,[2],93 % of control
same,T/C,"dose: 100.0 mg/kg/injection, schedule: Q01DX005 (ip), vehicle: saline with Tween-80",91 % of control
same,T/C,"dose: 200.0 mg/kg/injection, schedule: Q01DX005 (ip), vehicle: saline with Tween-80",107 % of control
CCOC(=S)SCC(=O)NC,T/C,[3],98 % of control
same,T/C,[5],107 % of control
same,T/C,[7],104 % of control
CC(=O)OCC1=COC(OC(=O)CC(C)(C)OC(C)=O)C2C1=CC(OC(=O)CC(C)C)[C@@]21CO1 (some centres not stated),T/C,"dose: 10.0 mg/kg/injection, schedule: Q01DX005 (ip), vehicle: saline",97 % of control
same,T/C,"dose: 20.0 mg/kg/injection, schedule: Q01DX005 (ip), vehicle: saline",93 % of control
same,T/C,"dose: 40.0 mg/kg/injection, schedule: Q01DX005 (ip), vehicle: saline",99 % of control
CN(C)/N=C1\C(=O)Nc2c(Cl)cc(Cl)cc21,T/C,[10],94 % of control
same,T/C,[11],94 % of control
same,T/C,[12],94 % of control
[Co].c1c[nH]cn1.c1c[nH]cn1.c1c[nH]cn1.c1c[nH]cn1.c1c[nH]cn1.c1c[nH]cn1,T/C,"dose: 12.5 mg/kg/injection, schedule: Q01DX005 (ip), vehicle: saline with Tween-80",103 % of control
same,T/C,[1],94 % of control
same,T/C,[2],103 % of control and 107 % of control
NC(N)=NOCC[C@@H](N)C(=O)O,T/C,"dose: 50.0 mg/kg/injection, schedule: Q01DX005 (ip), vehicle: saline",100 % of control
same,T/C,[4],99 % of control
same,T/C,[6],101 % of control
same,T/C,"dose: 400.0 mg/kg/injection, schedule: Q01DX005 (ip), vehicle: saline",91 % of control
same,T/C,"dose: 1000.0 mg/kg/injection, schedule: Q01DX001 (ip), vehicle: saline",95 % of control
C/C=C/c1ccc(OC(C)C(=O)c2ccc3c(c2)OCO3)c(OC)c1 (configuration not stated),T/C,"dose: 10.0 mg/kg/injection, schedule: Q01DX005 (ip), vehicle: Klucel (hydroxypropylcellulose) (HPC)",108 % of control
same,T/C,"dose: 20.0 mg/kg/injection, schedule: Q01DX005 (ip), vehicle: Klucel (hydroxypropylcellulose) (HPC)",101 % of control
same,T/C,"dose: 40.0 mg/kg/injection, schedule: Q01DX005 (ip), vehicle: Klucel (hydroxypropylcellulose) (HPC)",101 % of control
ClC1=C(Cl)N(C2=NCCC2)CC1,T/C,"dose: 6.25 mg/kg/injection, schedule: Q01DX009 (ip), vehicle: Klucel (hydroxypropylcellulose) (HPC)",96 % of control
same,T/C,"dose: 12.5 mg/kg/injection, schedule: Q01DX009 (ip), vehicle: Klucel (hydroxypropylcellulose) (HPC)",99 % of control
same,T/C,"dose: 25.0 mg/kg/injection, schedule: Q01DX009 (ip), vehicle: Klucel (hydroxypropylcellulose) (HPC)",99 % of control
Cc1cc(/C=C\c2ccc3ccccc3[n+]2C)c(O)c2ncccc12,T/C,[8],114 % of control
same,T/C,[9],106 % of control
CNC(=O)OCc1c(COC(=O)NC)c(-c2ccc(N)cc2)n(C)c1C,T/C,"dose: 6.25 mg/kg/injection, schedule: Q01DX009 (ip), vehicle: distilled water + Tween-80",106 % of control and 92 % of control
same,T/C,"dose: 12.5 mg/kg/injection, schedule: Q01DX009 (ip), vehicle: distilled water + Tween-80",119 % of control and 98 % of control
same,T/C,"dose: 25.0 mg/kg/injection, schedule: Q01DX009 (ip), vehicle: distilled water + Tween-80",100 % of control and 123 % of control
same,T/C,"dose: 50.0 mg/kg/injection, schedule: Q01DX009 (ip), vehicle: distilled water + Tween-80",119 % of control
